According to patent US10167262B2, “Herbicidal substituted 3-arylpyrazoles” (FMC CORPORATION, priority 2014, dated 2019):

Experiments:
Test in all cases: Test E pre-/postemergence greenhouse test, plant response rating 0-100
Format in all cases: in vivo
[1] = tested on: sandbur (southern sandbur, Cenchrus echinatus); conditions: Postemergence, scale 0 to 100
Source text: (§1) Seeds of plant species selected from corn (Zea mays), soybean (Glycine max), velvetleaf (Abutilon theophrasti), lambsquarters (Chenopodium album), wild poinsettia (Euphorbia heterophylla), palmer pigweed (Amaranthus palmeri), waterhemp (common waterhemp, Amaranthus rudis), surinam grass (Brachiaria decumbens), large (Lg) crabgrass (Digitaria sanguinalis), Brazilian crabgrass (Digitaria horizontalis), fall panicum (Panicum dichotomiflorum), giant foxtail (Setaria faberii), green foxtail (Setaria viridis), goosegrass (Eleusine indica), johnsongrass (Sorghum halepense), ragweed (common ragweed, Ambrosia elatior), barnyardgrass (Echinochloa crus-galli), sandbur (southern sandbur, Cenchrus echinatus), arrowleaf sida (Sida rhombifolia), Italian ryegrass (Lolium multiflorum), dayflower (Virginia (VA) dayflower, Commelina virginica), field bindweed (Convolvulus arvensis), morningglory (Ipomoea coccinea), nightshade (eastern black nightshade, Solanum ptycanthum), kochia (Kochia scoparia), yellow nutsedge (Cyperus esculentus), smartweed (ladysthumb smartweed, Polygonum persicaria), cocklebur (common cocklebur, Xanthium strumarium), and hairy beggarticks (Bidens pilosa), were planted into a silt loam soil and treated preemergence with test chemicals formulated in a non-phytotoxic solvent mixture which included a surfactant.
(§2) At the same time, plants from these crop and weed species and also waterhemp_RES1, (ALS & Triazine resistant common waterhemp, Amaranthus rudis), and waterhemp_RES2, (ALS & HPPD resistant common waterhemp, Amaranthus rudis) were planted in pots containing Redi-Earth® planting medium (Scotts Company, 14111 Scottslawn Road, Marysville, Ohio 43041) comprising spaghnum peat moss, vermiculite, wetting agent and starter nutrients were treated with postemergence applications of test chemicals formulated in the same manner. Plants ranged in height from 2 to 18 cm for postemergence treatments (1- to 4-leaf stage).
(§3) Treated plants and controls were maintained in a greenhouse for 14 to 21 days, after which time all species were compared to controls and visually evaluated. Plant response ratings, summarized in Table E, are based on a scale of 0 to 100 where 0 is no effect and 100 is complete control. A dash (-) response means no test result.

[2] = tested on: field bindweed (Convolvulus arvensis); conditions: Postemergence, scale 0 to 100
Source text: as §1, §2, §3

[3] = tested on: arrowleaf sida (Sida rhombifolia); conditions: Postemergence
Source text: as §1, §2, §3

soybean (Glycine max) = conditions: Postemergence, scale 0 to 100
Source text: as §1, §2, §3

corn (Zea mays) = conditions: Postemergence, scale 0 to 100
Source text: as §1, §2, §3

[4] = tested on: dayflower (Virginia (VA) dayflower, Commelina virginica); conditions: Postemergence, scale 0 to 100
Source text: as §1, §2, §3

[5] = tested on: Brazilian crabgrass (Digitaria horizontalis); conditions: Postemergence, scale 0 to 100
Source text: as §1, §2, §3

[6] = tested on: palmer pigweed (Amaranthus palmeri); conditions: Postemergence, scale 0 to 100
Source text: as §1, §2, §3

[7] = tested on: waterhemp (common waterhemp, Amaranthus rudis); conditions: Postemergence, scale 0 to 100
Source text: as §1, §2, §3

[8] = tested on: barnyardgrass (Echinochloa crus-galli); conditions: Postemergence, scale 0 to 100
Source text: as §1, §2, §3

[9] = tested on: hairy beggarticks (Bidens pilosa); conditions: Postemergence, scale 0 to 100
Source text: as §1, §2, §3

[10] = tested on: fall panicum (Panicum dichotomiflorum); conditions: Panicum dichotomiflorum, post-emergence, Postemergence, scale 0 to 100
Source text: as §1, §2, §3

Fc1ccc(NN=C(c2ccccc2)c2c[nH]nc2-c2cc(Cl)cc(Cl)c2)cc1 [Compound 35]
Plant response rating, Sandbur ([1]; 31 g ai/ha): 0 | Plant response rating, Sandbur ([1]; 62 g ai/ha): 0 | Plant response rating, Sandbur ([1]; 125 g ai/ha): 0 | Plant response rating, Sandbur ([1]; 250 g ai/ha): 0 | Plant response rating, Sandbur ([1]; 500 g ai/ha): 0 | Plant response rating, Field Bindweed ([2]; 31 g ai/ha): 0 | Plant response rating, Field Bindweed ([2]; 62 g ai/ha): 0 | Plant response rating, Field Bindweed ([2]; 125 g ai/ha): 0 | Plant response rating, Field Bindweed ([2]; 250 g ai/ha): 0 | Plant response rating, Field Bindweed ([2]; 500 g ai/ha): 15 | Plant response rating, Arrowleaf Sida ([3]; 31 g ai/ha, scale 0 to 100): 50 | Plant response rating, Arrowleaf Sida ([3]; 62 g ai/ha, scale 0 to 100): 60 | Plant response rating, Arrowleaf Sida ([3]; 125 g ai/ha, scale 0 to 100): 70 | Plant response rating, Arrowleaf Sida ([3]; 250 g ai/ha, scale 0 to 100): 80 | Plant response rating, Arrowleaf Sida ([3]; 500 g ai/ha, scale 0 to 100 (0 no effect, 100 complete control)): 90 | Plant response rating, Soybean (soybean (Glycine max); 31 g ai/ha): 0 | Plant response rating, Soybean (soybean (Glycine max); 62 g ai/ha): 0 | Plant response rating, Soybean (soybean (Glycine max); 125 g ai/ha): 0 | Plant response rating, Soybean (soybean (Glycine max); 250 g ai/ha): 0 | Plant response rating, Soybean (soybean (Glycine max); 500 g ai/ha): 0 | Plant response rating, Corn (corn (Zea mays); 31 g ai/ha): 0 | Plant response rating, Corn (corn (Zea mays); 62 g ai/ha): 0 | Plant response rating, Corn (corn (Zea mays); 125 g ai/ha): 0 | Plant response rating, Corn (corn (Zea mays); 250 g ai/ha): 0 | Plant response rating, Corn (corn (Zea mays); 500 g ai/ha): 0 | Plant response rating, Dayflower, VA ([4]; 31 g ai/ha): 0 | Plant response rating, Dayflower, VA ([4]; 62 g ai/ha): 0 | Plant response rating, Dayflower, VA ([4]; 125 g ai/ha): 0 | Plant response rating, Dayflower, VA ([4]; 250 g ai/ha): 0 | Plant response rating, Dayflower, VA ([4]; 500 g ai/ha): 0 | Plant response rating, Crabgrass, Brazil ([5]; 31 g ai/ha): 0 | Plant response rating, Crabgrass, Brazil ([5]; 62 g ai/ha): 0 | Plant response rating, Crabgrass, Brazil ([5]; 125 g ai/ha): 0 | Plant response rating, Crabgrass, Brazil ([5]; 250 g ai/ha): 0 | Plant response rating, Crabgrass, Brazil ([5]; 500 g ai/ha): 10 | Plant response rating, Pigweed, Palmer ([6]; 31 g ai/ha): 75 | Plant response rating, Pigweed, Palmer ([6]; 62 g ai/ha): 80 | Plant response rating, Pigweed, Palmer ([6]; 125 g ai/ha): 98 | Plant response rating, Pigweed, Palmer ([6]; 250 g ai/ha): 100 | Plant response rating, Pigweed, Palmer ([6]; 500 g ai/ha): 100 | Plant response rating, Waterhemp ([7]; 62 g ai/ha): 85 | Plant response rating, Waterhemp ([7]; 125 g ai/ha): 95 | Plant response rating, Waterhemp ([7]; 250 g ai/ha): 98 | Plant response rating, Waterhemp ([7]; 500 g ai/ha): 100 | Plant response rating, Barnyardgrass ([8]; 31 g ai/ha): 0 | Plant response rating, Barnyardgrass ([8]; 62 g ai/ha): 0 | Plant response rating, Barnyardgrass ([8]; 125 g ai/ha): 0 | Plant response rating, Barnyardgrass ([8]; 250 g ai/ha): 0 | Plant response rating, Barnyardgrass ([8]; 500 g ai/ha): 0 | Plant response rating, Beggarticks ([9]; 31 g ai/ha): 85 | Plant response rating, Beggarticks ([9]; 62 g ai/ha): 98 | Plant response rating, Beggarticks ([9]; 125 g ai/ha): 98 | Plant response rating, Beggarticks ([9]; 250 g ai/ha): 98 | Plant response rating, Beggarticks ([9]; 500 g ai/ha): 100

CCCn1cc(C(=O)c2ccccc2)c(-c2cc(Cl)cc(Cl)c2)n1 [Compound 61, [3-(3,5-dichlorophenyl)-1-propyl-1H-pyrazol-4-yl]phenylmethanone]
pest or weed control at 31 g/ha ([1]; Cenchrus echinatus, post-emergence, 31 g ai/ha): 0% | pest or weed control at 62 g/ha ([1]; Cenchrus echinatus, post-emergence, 62 g ai/ha): 0% | pest or weed control at 125 g/ha ([1]; Cenchrus echinatus, post-emergence, 125 g ai/ha): 0% | pest or weed control at 250 g/ha ([1]; Cenchrus echinatus, post-emergence, 250 g ai/ha): 0% | pest or weed control at 500 g/ha ([1]; Cenchrus echinatus, post-emergence, 500 g ai/ha): 0% | pest or weed control at 31 g/ha ([2]; Convolvulus arvensis, post-emergence, 31 g ai/ha): 0% | pest or weed control at 62 g/ha ([2]; Convolvulus arvensis, post-emergence, 62 g ai/ha): 0% | pest or weed control at 125 g/ha ([2]; Convolvulus arvensis, post-emergence, 125 g ai/ha): 0% | pest or weed control at 250 g/ha ([2]; Convolvulus arvensis, post-emergence, 250 g ai/ha): 0% | pest or weed control at 500 g/ha ([2]; Convolvulus arvensis, post-emergence, 500 g ai/ha): 5% | pest or weed control at 31 g/ha ([3]; Sida rhombifolia, post-emergence, 31 g ai/ha, scale 0 to 100): 30% | pest or weed control at 62 g/ha ([3]; Sida rhombifolia, post-emergence, 62 g ai/ha, scale 0 to 100): 40% | pest or weed control at 125 g/ha ([3]; Sida rhombifolia, post-emergence, 125 g ai/ha, scale 0 to 100): 40% | pest or weed control at 250 g/ha ([3]; Sida rhombifolia, post-emergence, 250 g ai/ha, scale 0 to 100): 60% | pest or weed control at 500 g/ha ([3]; Sida rhombifolia, post-emergence, 500 g ai/ha, scale 0 to 100 (0 no effect, 100 complete control)): 70% | plant injury at 31 g/ha (soybean (Glycine max); Glycine max, post-emergence, 31 g ai/ha): 0% | plant injury at 62 g/ha (soybean (Glycine max); Glycine max, post-emergence, 62 g ai/ha): 0% | plant injury at 125 g/ha (soybean (Glycine max); Glycine max, post-emergence, 125 g ai/ha): 0% | plant injury at 250 g/ha (soybean (Glycine max); Glycine max, post-emergence, 250 g ai/ha): 0% | plant injury at 500 g/ha (soybean (Glycine max); Glycine max, post-emergence, 500 g ai/ha): 10% | Corn plant response rating (crop injury, 0 = no effect, 100 = complete kill) at 31 g/ha (corn (Zea mays); Zea mays, post-emergence, 31 g ai/ha): 0% | Corn plant response rating (crop injury, 0 = no effect, 100 = complete kill) at 62 g/ha (corn (Zea mays); Zea mays, post-emergence, 62 g ai/ha): 0% | Corn plant response rating (crop injury, 0 = no effect, 100 = complete kill) at 125 g/ha (corn (Zea mays); Zea mays, post-emergence, 125 g ai/ha): 0% | Corn plant response rating (crop injury, 0 = no effect, 100 = complete kill) at 250 g/ha (corn (Zea mays); Zea mays, post-emergence, 250 g ai/ha): 0% | Corn plant response rating (crop injury, 0 = no effect, 100 = complete kill) at 500 g/ha (corn (Zea mays); Zea mays, post-emergence, 500 g ai/ha): 0% | pest or weed control at 31 g/ha ([4]; Commelina virginica, post-emergence, 31 g ai/ha): 0% | pest or weed control at 62 g/ha ([4]; Commelina virginica, post-emergence, 62 g ai/ha): 0% | pest or weed control at 125 g/ha ([4]; Commelina virginica, post-emergence, 125 g ai/ha): 0% | pest or weed control at 250 g/ha ([4]; Commelina virginica, post-emergence, 250 g ai/ha): 0% | pest or weed control at 500 g/ha ([4]; Commelina virginica, post-emergence, 500 g ai/ha): 0% | pest or weed control at 31 g/ha ([5]; Digitaria horizontalis, post-emergence, 31 g ai/ha, read-out: Plant response rating, Crabgrass, Brazil): 0% | pest or weed control at 62 g/ha ([5]; Digitaria horizontalis, post-emergence, 62 g ai/ha, read-out: Plant response rating, Crabgrass, Brazil): 0% | pest or weed control at 125 g/ha ([5]; Digitaria horizontalis, post-emergence, 125 g ai/ha, read-out: Plant response rating, Crabgrass, Brazil): 0% | pest or weed control at 250 g/ha ([5]; Digitaria horizontalis, post-emergence, 250 g ai/ha, read-out: Plant response rating, Crabgrass, Brazil): 0% | pest or weed control at 500 g/ha ([5]; Digitaria horizontalis, post-emergence, 500 g ai/ha, read-out: Plant response rating, Crabgrass, Brazil): 0% | pest or weed control at 31 g/ha ([6]; Amaranthus palmeri, post-emergence, 31 g ai/ha): 50% | pest or weed control at 62 g/ha ([6]; Amaranthus palmeri, post-emergence, 62 g ai/ha): 60% | pest or weed control at 125 g/ha ([6]; Amaranthus palmeri, post-emergence, 125 g ai/ha): 60% | pest or weed control at 250 g/ha ([6]; Amaranthus palmeri, post-emergence, 250 g ai/ha): 80% | pest or weed control at 500 g/ha ([6]; Amaranthus palmeri, post-emergence, 500 g ai/ha): 95% | pest or weed control at 31 g/ha ([10]; 31 g ai/ha): 0% | pest or weed control at 62 g/ha ([10]; 62 g ai/ha): 0% | pest or weed control at 125 g/ha ([10]; 125 g ai/ha): 0% | pest or weed control at 250 g/ha ([10]; 250 g ai/ha): 0% | pest or weed control at 500 g/ha ([10]; 500 g ai/ha): 0% | pest or weed control at 31 g/ha ([7]; Amaranthus tuberculatus, post-emergence, 31 g ai/ha): 20% | pest or weed control at 62 g/ha ([7]; Amaranthus tuberculatus, post-emergence, 62 g ai/ha): 30% | pest or weed control at 125 g/ha ([7]; Amaranthus tuberculatus, post-emergence, 125 g ai/ha): 75% | pest or weed control at 250 g/ha ([7]; Amaranthus tuberculatus, post-emergence, 250 g ai/ha): 100% | pest or weed control at 31 g/ha ([8]; Echinochloa crus-galli, post-emergence, 31 g ai/ha): 0% | pest or weed control at 62 g/ha ([8]; Echinochloa crus-galli, post-emergence, 62 g ai/ha): 0% | pest or weed control at 125 g/ha ([8]; Echinochloa crus-galli, post-emergence, 125 g ai/ha): 0% | pest or weed control at 250 g/ha ([8]; Echinochloa crus-galli, post-emergence, 250 g ai/ha): 10% | pest or weed control at 500 g/ha ([8]; Echinochloa crus-galli, post-emergence, 500 g ai/ha): 20%
